Source: ChEMBL document CHEMBL1147126, “Habbemines A and B, pyrrolidine alkaloids with human delta-opioid receptor binding affinity from the leaves of Elaeocarpus habbemensis” (J Nat Prod, 2007)

Target: Delta-type opioid receptor (Homo sapiens, UniProt P41143)
Assay: Displacement of [125I]deltorphin 2 from human recombinant delta opioid receptor expressed in HEK cell membrane
Assay type: cell membranes, HEK293

Chain of Delta-type opioid receptor (P41143 whole entry): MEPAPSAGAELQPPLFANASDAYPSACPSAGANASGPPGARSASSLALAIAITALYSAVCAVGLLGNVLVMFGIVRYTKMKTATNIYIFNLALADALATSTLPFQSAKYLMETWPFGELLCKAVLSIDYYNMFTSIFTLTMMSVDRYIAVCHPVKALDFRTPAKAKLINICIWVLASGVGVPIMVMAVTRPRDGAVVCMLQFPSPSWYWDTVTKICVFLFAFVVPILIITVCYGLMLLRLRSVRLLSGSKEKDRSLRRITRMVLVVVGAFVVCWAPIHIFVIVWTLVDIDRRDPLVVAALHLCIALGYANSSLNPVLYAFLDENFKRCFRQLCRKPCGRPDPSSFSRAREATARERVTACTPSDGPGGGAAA

Row | SMILES | IC50
1 | C[C@H]1CC=CC(=O)[C@@H]1C(=O)C[C@H]1CCCN1CCCO [HABBEMINES B] | 32.1 µM
2 | C[C@H]1CC=CC(=O)[C@@H]1C(=O)C[C@@H]1CCCN1CCCO [HABBEMINES A] | 32.1 µM
